Experimental data reported in ChEMBL document CHEMBL5705903, “A DNA Hypomethylation Signature Predicts Antitumor Activity of LSD1 Inhibitors in SCLC” (Cancer Cell, 2015).
Active and inactive are the calls of the source. No cut-off for these calls is given here.

Assays:
[1] = Effect on cleaved PARP level in human NCI-H524 cells assessed as fold change at 10 nM measured after 7 days by Western blot analysis (reference value: 1.00); type: functional; conditions: time 7 day
NCI-H1417 [2] = assay: Effect on cell cycle in human NCI-H1417 cells assessed as cell accumulation at […] phase upto 1000 nM measured for 7 to 14 days by flow cytometry; type: functional, cell-based; conditions: time 7-14 day
SHP77 = assay: Effect on SYP gene expression in human SHP77 cells at 1 uM measured after 4 days by qRT-PCR analysis; type: functional, cell-based; conditions: time 4.0 day
[3] = Effect on cleaved PARP level in human NCI-H889 cells assessed as fold change at 10 nM measured after 10 days by Western blot analysis (reference value: 1.00); type: functional; conditions: time 10 day
[4] = Effect on cleaved PARP level in human NCI-H146 cells assessed as fold change at 1000 nM measured after 10 days by Western blot analysis (reference value: 1.00); type: functional; conditions: time 10 day
NCI-H526 [5] = assay: In vivo inhibition of LSD1 in human NCI-H526 cells xenografted in nude mouse assessed as change in ZEB1 gene expression measured after 24 hrs post single administration by qRT-PCR analysis; type: functional, organism-based; conditions: dose 0.06-135 mg/kg
[6] = Effect on cleaved PARP level in human COLO-668 cells assessed as fold change at 1000 nM measured after 14 days by Western blot analysis (reference value: 1.00); type: functional; conditions: time 14 day
NCI-H69 [7] = assay: Antitumor activity against human NCI-H69 cells xenografted in nude mouse assessed as tumor growth inhibition at 0.5 mg/kg, po administered daily measured twice weekly relative to control; type: functional; conditions: read-out: TGI
NCI-H526 [8] = assay: In vivo inhibition of LSD1 in human NCI-H526 cells xenografted in nude mouse assessed as change in TSPAN8 gene expression measured after 24 hrs post single administration by qRT-PCR analysis; type: functional, organism-based; conditions: dose 0.06-135 mg/kg
[9] = Effect on cleaved PARP level in human NCI-H2171 cells assessed as fold change at 1000 nM measured after 7 days by Western blot analysis (reference value: 1.00); type: functional; conditions: time 7 day
[10] = Effect on cleaved PARP level in human NCI-H1694 cells assessed as relative expression at 10 nM measured after 7 days by Western blot analysis (reference value: 0.25); type: functional; conditions: time 7 day
[11] = Effect on cleaved PARP level in human NCI-H2171 cells assessed as fold change at 100 nM measured after 10 days by Western blot analysis (reference value: 1.00); type: functional; conditions: time 10 day
[12] = Effect on cleaved PARP level in human NCI-H526 cells assessed as fold change at 1000 nM measured after 14 days by Western blot analysis (reference value: 1.00); type: functional; conditions: time 14 day
NCI-H526 [13] = assay: Effect on global H3K4me1 level in human NCI-H526 cells at 10 to 1000 nM measured after 24 hrs by Western blot analysis; type: functional, cell-based; conditions: dose 10-1000 nM
NCI-H1417 [14] = assay: In vivo inhibition of LSD1 in human NCI-H1417 cells xenografted in nude mouse assessed as change in ZEB1 gene expression measured after 24 hrs post single administration by qRT-PCR analysis; type: functional, organism-based; conditions: dose 0.02-135 mg/kg
[15] = Toxicity in mouse xenografted with human NCI-H526 cells assessed as body weight loss at 1.5 mg/kg, po administered daily measured for 30 days; type: organism-based; conditions: in vivo, 720 h, time 30 day
[16] = Effect on cleaved PARP level in human NCI-H524 cells assessed as relative expression at 10 nM measured after 10 days by Western blot analysis (reference value: 0.95); type: functional; conditions: time 10 day
[17] = Effect on cleaved PARP level in human NCI-H526 cells assessed as relative expression at 10 nM measured after 7 days by Western blot analysis (reference value: 0.57); type: functional; conditions: time 7 day
[18] = Effect on cleaved PARP level in human NCI-H526 cells assessed as fold change at 100 nM measured after 7 days by Western blot analysis (reference value: 1.00); type: functional; conditions: time 7 day
NCI-H526 [19] = assay: In vivo inhibition of LSD1 in human NCI-H526 cells xenografted in nude mouse assessed as change in ANXA6 gene expression administrated daily for 5 days by qRT-PCR analysis; type: functional, organism-based; conditions: dose 0.02-135 mg/kg, time 5.0 day
[20] = Effect on cleaved PARP level in human NCI-H510 cells assessed as fold change at 10 nM measured after 7 days by Western blot analysis (reference value: 1.00); type: functional, NCI-H510A; conditions: time 7 day
[21] = Effect on cleaved PARP level in human COLO-668 cells assessed as relative expression at 10 nM measured after 14 days by Western blot analysis (reference value: 3.50); type: functional; conditions: time 14 day
NCI-H69 [22] = assay: Antitumor activity against human NCI-H69 cells xenografted in nude mouse assessed as mean tumor volume at 0.5 mg/kg, po administered daily measured twice weekly (reference value: 1063 +/- 161 mm3); type: functional
[23] = Effect on cleaved PARP level in human NCI-H146 cells assessed as relative expression at 10 nM measured after 10 days by Western blot analysis (reference value: 0.27); type: functional; conditions: time 10 day
D-amino-acid oxidase = D-amino-acid oxidase (Homo sapiens, UniProt P14920); assay: Binding affinity to D-amino acid oxidase (unknown origin) assessed as apparent inhibition constant; conditions: read-out: Ki(app)
[24] = target: T1, Lysine-specific histone demethylase 1A (Homo sapiens, UniProt O60341); conditions: NCI-H526, dose 1-10000 nM, time 1-7 day
Description: Inhibition of LSD1 in human NCI-H526 cells assessed as change in IGFBP2 gene expression at 1 to 10000 nM by qRT-PCR analysis

[25] = Effect on cleaved PARP level in human NCI-H69 cells assessed as relative expression at 10 nM measured after 14 days by Western blot analysis (reference value: 0.03); type: functional; conditions: time 14 day
[26] = Effect on cleaved PARP level in human NCI-H526 cells assessed as fold change at 1000 nM measured after 10 days by Western blot analysis (reference value: 1.00); type: functional; conditions: time 10 day
[27] = Dose normalized AUC (0 to last) in mouse tumor at 5 mg/kg, po by HPLC/MS/MS analysis; type: ADME, organism-based, Neoplasm; conditions: in vivo
NCI-H526 [28] = assay: In vivo inhibition of LSD1 in human NCI-H526 cells xenografted in nude mouse assessed as change in UMODL1 gene expression measured after 24 hrs post single administration by qRT-PCR analysis; type: functional, organism-based; conditions: dose 0.06-135 mg/kg
[29] = Effect on cleaved PARP level in human COLO-668 cells assessed as fold change at 100 nM measured after 7 days by Western blot analysis (reference value: 1.00); type: functional; conditions: time 7 day
NCI-H526 [30] = assay: In vivo inhibition of LSD1 in human NCI-H526 cells xenografted in nude mouse assessed as change in UMODL1 gene expression administrated daily for 5 days by qRT-PCR analysis; type: functional, organism-based; conditions: dose 0.02-135 mg/kg, time 5.0 day
[31] = target: T1, Lysine-specific histone demethylase 1A; assay: Binding affinity to LSD1 (unknown origin) using H3K4me2 as substrate assessed as apparent inhibition constant by HRP-coupled amplex red assay; conditions: read-out: Ki(app)
[32] = Cmax in mouse blood at 5 mg/kg, po by HPLC/MS/MS analysis; type: ADME, organism-based
NCI-H510A = assay: Antitumor activity against human NCI-H510A cells xenografted in nude mouse assessed as mean tumor volume at 1.5 mg/kg, po administered daily measured twice weekly (reference value: 1028 +/- 182 mm3); type: functional

D-amino-acid oxidase, sequence (P14920 whole entry): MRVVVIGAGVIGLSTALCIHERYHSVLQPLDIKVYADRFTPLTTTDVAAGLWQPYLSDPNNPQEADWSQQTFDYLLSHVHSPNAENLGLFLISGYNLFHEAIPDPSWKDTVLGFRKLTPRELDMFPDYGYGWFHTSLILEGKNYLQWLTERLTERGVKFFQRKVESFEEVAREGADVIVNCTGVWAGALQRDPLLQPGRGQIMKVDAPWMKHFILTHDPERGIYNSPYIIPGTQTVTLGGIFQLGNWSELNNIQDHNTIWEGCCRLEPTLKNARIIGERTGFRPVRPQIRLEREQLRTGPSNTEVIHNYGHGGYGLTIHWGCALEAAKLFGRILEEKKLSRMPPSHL

## O=C(O)c1ccc(CN2CCC(CN[C@@H]3C[C@H]3c3ccccc3)CC2)cc1 [GSK2879552]
[1]
  fold change (FC): 0.99
NCI-H1417 [2]
  Activity: inactive
SHP77
  Activity: inactive
[3]
  fold change (FC): 1.68
[4]
  fold change (FC): 0.89
NCI-H526 [5]
  inhibition: Dose-Dependent Effect
[6]
  fold change (FC): 0.29
NCI-H69 [7]
  inhibition in vivo at 0.5 mg/kg: 51%
NCI-H526 [8]
  inhibition: Dose-Dependent Effect
[9]
  fold change (FC): 2.18
[10]
  Activity: 0.3
[11]
  fold change (FC): 1.2
[12]
  fold change (FC): 1.37
NCI-H526 [13]
  Activity: inactive
NCI-H1417 [14]
  inhibition: Dose-Dependent Effect
[15]
  Activity: Non-Toxic
[16]
  Activity: 0.77
[17]
  Activity: 0.48
[18]
  fold change (FC): 1.2
NCI-H526 [19]
  inhibition: Dose-Dependent Effect
[20]
  fold change (FC): 1.27
[21]
  Activity: 1.45
NCI-H69 [22]
  Activity: 592 mm3
[23]
  Activity: 0.33
D-amino-acid oxidase
  Ki: 520 µM
[24]
  inhibition: Tde
[25]
  Activity: 0.05
[26]
  fold change (FC): 1.43
[27]
  AUClast/dose: 464 ng·h/mL/mg/kg
NCI-H526 [28]
  inhibition: Dose-Dependent Effect
[29]
  fold change (FC): 1.06
NCI-H526 [30]
  inhibition: Dose-Dependent Effect
[31]
  Ki: 1.7 µM
[32]
  Cmax: 720 ng/mL
NCI-H510A
  Activity: 705 mm3
